The record followed here is article PMC3914206.

This assay deals with T1, panel of 442 kinases (Homo sapiens, UniProt Q13873).
T1 construct: purchased KINOMEscan
T1 sequence (Q13873 27-1038): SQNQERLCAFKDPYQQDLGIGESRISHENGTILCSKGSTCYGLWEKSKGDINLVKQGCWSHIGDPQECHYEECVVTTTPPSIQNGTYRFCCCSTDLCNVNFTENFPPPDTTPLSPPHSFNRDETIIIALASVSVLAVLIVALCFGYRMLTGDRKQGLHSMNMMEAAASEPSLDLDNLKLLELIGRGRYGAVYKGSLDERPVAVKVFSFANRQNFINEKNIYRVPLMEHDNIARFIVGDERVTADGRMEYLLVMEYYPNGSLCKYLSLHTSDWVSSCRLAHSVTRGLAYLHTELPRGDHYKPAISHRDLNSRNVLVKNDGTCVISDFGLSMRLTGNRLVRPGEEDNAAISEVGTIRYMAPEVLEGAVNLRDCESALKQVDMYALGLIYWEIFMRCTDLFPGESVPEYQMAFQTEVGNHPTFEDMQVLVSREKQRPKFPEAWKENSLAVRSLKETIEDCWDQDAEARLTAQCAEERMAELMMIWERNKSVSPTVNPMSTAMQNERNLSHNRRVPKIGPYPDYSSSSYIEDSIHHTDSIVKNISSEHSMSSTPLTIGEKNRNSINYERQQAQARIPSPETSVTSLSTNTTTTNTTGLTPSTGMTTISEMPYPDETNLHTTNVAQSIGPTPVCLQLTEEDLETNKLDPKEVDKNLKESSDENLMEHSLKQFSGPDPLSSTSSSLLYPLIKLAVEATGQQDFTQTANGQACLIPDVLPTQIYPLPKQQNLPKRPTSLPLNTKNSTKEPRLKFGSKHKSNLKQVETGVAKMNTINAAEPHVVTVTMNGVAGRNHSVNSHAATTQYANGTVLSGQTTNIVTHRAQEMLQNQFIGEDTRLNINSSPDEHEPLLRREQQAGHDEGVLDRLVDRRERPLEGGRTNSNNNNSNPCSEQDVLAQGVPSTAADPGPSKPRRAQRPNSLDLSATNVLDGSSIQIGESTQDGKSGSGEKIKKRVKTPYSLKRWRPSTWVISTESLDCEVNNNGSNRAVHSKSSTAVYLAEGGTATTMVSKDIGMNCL
The class given is binding. Conditions: Compound Concentration 10 µM. The source says: We assessed the selectivity of members of this scaffold using the KINOMEscan methodology across a near comprehensive panel of 442 kinases [[18,27]].

With `COc1cc(C(=O)N2CCC(N3CCN(C)CC3)CC2)ccc1Nc1ncc2c(n1)N(C)c1ccccc1C(=O)N2C` [15 (LRRK2-IN-1)], the “KINOMEscan: BMPR2” value was 100.
Take `COc1cc(C(=O)N2CCC(N3CCN(C)CC3)CC2)ccc1Nc1ncc2c(n1)N(C1CCCC1)c1ccccc1C(=O)N2C` [Compound 25, 11-cyclopentyl-2-((2-methoxy-4-(4-(4-methylpiperazin-1-yl)piperidine-1-carbonyl)phenyl)amino)-5-methyl-5H-benzo[e]pyrimido[5,4-b][1,4]diazepin-6(11H)-one]: the “KINOMEscan: BMPR2” value is listed as 100.
For `CCOc1cc(C(=O)N2CCC(N3CCN(C)CC3)CC2)ccc1Nc1ncc2c(n1)N(C1CCCC1)c1ccccc1C(=O)N2C` [Compound 26] the value was 93.
